Laboratory results taken from patent US4978654A, “Composition and method for treatment of disseminated fungal infections in mammals” (priority 1987, dated 1990).
≈ marks a conversion by molar mass, not a printed value.

What was measured:
[1] = Poste, Biol. Cell 47; 19 (1983); cited from earlier work
[2] = tested on: Candida albicans; assay: In vitro MFC, YNB tube dilution (Table 1); assay type: cell-based; conditions: 18 h
Method: (§1) In vitro tests were conducted to determine the effect of free Amp B, Amp B encapsulated in nor-sterol-containing liposomes, (L-Amp B), Amp B encapsulated in cholesterol-containing liposomes (L-Amp B-C) and Amp B in ergosterol-containing liposomes (L-Amp B-E). Desoxycholate free Amphotericin B was obtained from E. R. Squibb & Sons, Inc. Amp B was encapsulated in non-sterol containing liposomes by the method described by Lopez-Berestein, et al., and summarized in Example 1, above. In order to obtain the different doses necessary, lipid concentration was held constant as the Amp B concentration was decreased. The concentration of Amp B within the liposome was determined by scanning in a UV absorption spectrophotometer (Gilford Instrument Laboratories, Oberlin, Ohio) at 405 nm after the Amp B was dissolved in methanol. Cholesterol or ergosterol, obtained from Avanti Polar Lipids (Birmingham, Ala.), was added to the chloroform DMPC:DMPG solution at a molar ratio of 7:3:4 (DMPC:DMPG:sterol).
(§2) In vitro activity of free Amp B, L-Amp B, L-Amp B-C and L-Amp B-E was tested on the following yeast species, all clinical isolates obtained from the Clinical Microbiology Laboratories at the University of Texas M.D. Anderson Hospital and Tumor Institute at Houston: Candida albicans, C. tropicalis, C. parapsilosis, Torulopsis glabrata and Cryptococcus neoformans. The YNB tube dilution method described by Shadomy, S., et al., "Susceptibility Testing with Antifungal Drugs." In Lennette, E. H., et al. (eds.), Manual of Clinical Microbiology, 3rd Ed. (Washington, D.C., American Society for Microbiology, 1980), pp. 647-653, hereby incorporated by reference, was used to perform all tests. All tubes were subcultured (10 μl ) onto Sabouraud-dextrose agar (SDA) (Scott/Randolph, Houston, Tex.) plates. Minimal fungicidal concentrations (MFC) were determined after incubation for 18 hours. The MFC was defined as the lowest concentration of Amp B that allowed no growth or growth of fewer than four colonies on the subculture plates.

[3] = tested on: Candida parapsilosis; assay: In vitro MFC, YNB tube dilution (Table 1); assay type: cell-based; conditions: 18 h
Method: as §1, §2

[4] = tested on: Candida tropicalis; assay: In vitro MFC, YNB tube dilution (Table 1); assay type: cell-based; conditions: 18 h
Method: as §1, §2

[5] = tested on: Candida glabrata; assay: In vitro MFC, YNB tube dilution (Table 1); assay type: cell-based, Candida glabrata (Torulopsis glabrata in method); conditions: 18 h
Method: as §1, §2

[6] = tested on: Candida neoformans; assay: In vitro MFC, YNB tube dilution (Table 1); assay type: cell-based, Candida neoformans (Cryptococcus neoformans in method); conditions: 18 h
Method: as §1, §2

[7] = tested on: yeast species, clinical isolates; assay: In vitro antifungal activity summarized over the 19 yeast strains; assay type: cell-based
Method: as §1, with “Cholesterol or ergosterol, obtained from Avanti Polar Lipids (Birmingham, Ala.), was added to the chloroform DMPC:DMPG solution at a molar ratio of 7:3:4 (DMPC:DMPG:sterol).” left out
In vitro activity of free Amp B, L-Amp B, L-Amp B-C and L-Amp B-E was tested on the following yeast species, all clinical isolates obtained from the Clinical Microbiology Laboratories at the University of Texas M.D. Anderson Hospital and Tumor Institute at Houston: Candida albicans, C. tropicalis, C. parapsilosis, Torulopsis glabrata and Cryptococcus neoformans. […] Minimal fungicidal concentrations (MFC) were determined after incubation for 18 hours. […]

[8] = tested on: C. albicans; assay: MFC of Amp B in different phospholipid compositions (Table 3); assay type: cell-based, Candida albicans; conditions: effect of lipid composition
Text: The compositions included one or more of the following: DMPC, DMPG, cholesterol (Chol), ergosterol (Erg), and stearylamine (SA).

[9] = tested on: C. albicans 336; assay: Survival of infected mice, effect of lipid composition (FIG. 3); assay type: in vivo, Hale-Stoner mice; conditions: 1.6 mg Amp B/kg
Method: Hale-Stoner mice, 6-8 weeks old and weighing 20-25 g, were obtained from The University of Texas Science Park (Bastrop, Tex.). Mice (10 per group) were injected intravenously with Candida albicans strain 336. This strain was grown for 18 hours on SDA plates at 37° C., washed and resuspended in saline. The mice were injected in the tail vein with 0.2 ml of the suspension containing 7×10^5 colony-forming units. […] The mice were injected on the second day of infection with a single dose of Amphotericin B.
Amp B was encapsulated in sterol-free and sterol-containing liposomes prepared by the method described in Example 2, above. Amp B concentration was determined at 405 nm as described in Example 2.
The effect of the lipid composition of the liposome on the survival of mice infected with C. albicans 336 was also evaluated. Each liposome case shown in FIG. 3 used 1.6 mg Amp B in 200 mg total lipid/kg.

[10] = Toxicity / tolerated dose in mice; conditions: mouse, in vivo
Text: The liposome-encapsulated Amp B may then be administered to a mammal infected with a fungal infection.

[11] = physchem; assay type: physicochemical; conditions: organic solvent or mixture
Method: The lipids dimyristoyl phosphatidylcholine (DMPC) and dimyristoyl phosphatidylglycerol (DMPG) were obtained from Avanti Polar Lipids (Birmingham, Ala.), and desoxycholate-free Amp B was obtained from Dr. Dan Bonner (Squibb Pharmaceuticals, New Brunswick, N.J.). DMPC and DMPG were dissolved in chloroform in a molar ratio of 7:3 DMPC:DMPG. Amp B was dissolved in methanol at a concentration of 40 μg/ml and the Amp B solution added to the chloroform containing the DMPC and DMPG. This mixture was placed in a rotary evaporator (Rotavapor®; Brinkman Instruments, Westbury, N.Y.) until all organic solvents were removed. Normal saline was then added and the vesicles formed by gentle agitation. Using this method, to prepare enough liposome-encapsulated Amp B to make up a single dose for a 50 kg patient at a dose of 0.8 mg/kg body weight (as discussed in Example 4) requires the drying of at least 1 to 1.5 liters of the Amp B-methanol solution. Under controlled temperature and pressure conditions, approximately 3 to 4 hours are required to evaporate this volume of the Amp B-methanol solution.
Using this method, 640 μg of Amp B was dissolved in 1 ml of chloroform (containing 25 mg of the lipid mixture), a significant increase over the 40 μg/ml which can be dissolved in methanol as in the method described above. […]

[12] = tested on: Aspergillus terreus; assay: Treatment of cancer patient, Case 2; assay type: in vivo, human
[13] = tested on: systemic fungal infection (fungal liver abscesses, consistent with Aspergillus spp.); conditions: human, in vivo
[14] = cited from earlier work
[15] = intravenous administration; cited from earlier work

**Q.** With `CCCCCCCCCCCCCCCCOP(=O)(O)OCCCCCCCCCCCCCCCC` [dicetyl phosphate] as the molecule, how does the “toxicity in mammalian systems” value [1] read?
**A.** The value was “toxic in mammalian systems in that they cause damage to the liver”.

**Q.** With `CCCCCCCCCCCCCCCCCCN` [stearylamine] as the molecule, how does the “toxicity in mammalian systems” value [1] read?
**A.** The value was “toxic in mammalian systems in that they cause damage to the liver”.

**Q.** Which MFC ([2]; strain 57) does the source give for `C[C@@H]1[C@H](O)[C@@H](C)/C=C/C=C/C=C/C=C/C=C/C=C/C=C/[C@H](O[C@@H]2O[C@H](C)[C@@H](O)[C@H](N)[C@@H]2O)C[C@@H]2O[C@](O)(C[C@@H](O)C[C@@H](O)[C@H](O)CC[C@@H](O)C[C@@H](O)CC(=O)O[C@H]1C)C[C@H](O)[C@H]2C(=O)O` [Amp B, Amphotericin B] here?
**A.** The MFC was 0.8 μg/Amp B/ml.

**Q.** What about the MFC ([2]; strain 306) of the same molecule?
**A.** The MFC was 1.6 μg/Amp B/ml.

**Q.** What about the MFC ([2]; strain 704) of the same molecule?
**A.** Its MFC is 0.4 μg/Amp B/ml.

**Q.** And the MFC ([2]; strain 1091)?
**A.** The MFC was 0.8 μg/Amp B/ml.

**Q.** And the MFC ([3]; strain 139)?
**A.** Its MFC is 3 μg/Amp B/ml.

**Q.** And the MFC ([3]; strain 1341)?
**A.** Its MFC is > 25 μg/Amp B/ml.

**Q.** And the MFC ([3]; strain 2300)?
**A.** The MFC was 3 μg/Amp B/ml.

**Q.** And the MFC ([4]; strain 251)?
**A.** The MFC was 3 μg/Amp B/ml.

**Q.** And the MFC ([4]; strain 1324)?
**A.** Its MFC is 1.6 μg/Amp B/ml.

**Q.** What about the MFC ([4]; strain 1784) of the same molecule?
**A.** The MFC was 3 μg/Amp B/ml.

**Q.** And the MFC ([4]; strain 2463)?
**A.** The MFC was 1.6 μg/Amp B/ml.

**Q.** What about the MFC ([5]; strain 684) of the same molecule?
**A.** The MFC was 3 μg/Amp B/ml.

**Q.** And the MFC ([5]; strain 1172)?
**A.** Its MFC is 1.6 μg/Amp B/ml.

**Q.** And the MFC ([5]; strain 1905)?
**A.** The MFC was 3 μg/Amp B/ml.

**Q.** And the MFC ([5]; strain 2539)?
**A.** The MFC was 3 μg/Amp B/ml.

**Q.** What about the MFC ([6]; strain 222) of the same molecule?
**A.** Its MFC is 1.6 μg/Amp B/ml.

**Q.** What about the MFC ([6]; strain 595) of the same molecule?
**A.** Its MFC is 0.4 μg/Amp B/ml.

**Q.** And the MFC ([6]; strain 843)?
**A.** Its MFC is 0.8 μg/Amp B/ml.

**Q.** What about the MFC ([6]; strain 881) of the same molecule?
**A.** The MFC was 1.6 μg/Amp B/ml.

**Q.** What about the “efficacy ranking in killing of the fungal strains” value [7] of the same molecule?
**A.** Its value is “Amp B being most effective, then L-Amp B, L-Amp B-C and, finally L-Amp B-E”.

**Q.** And the MFC [8]?
**A.** Its MFC is 1.6 μg of Amp B per ML.

**Q.** And the “survival time over the controls” value [9]?
**A.** The value was “improved survival time over the controls”.

**Q.** And the “time to 50% survival” value ([9]; control 5 days)?
**A.** The value was 10 days.

**Q.** And the LD50 [10]?
**A.** The LD50 was ~1.2 mg/kg.

**Q.** And the MTD ([10]; read-out: maximum dose tolerated)?
**A.** The MTD was 0.8 mg/kg.

**Q.** What about the solubility ([11]; chloroform with lipid mixture) of the same molecule?
**A.** The solubility was 640 µg/mL (≈ 693 µM).

**Q.** What about the solubility ([11]; methanol) of the same molecule?
**A.** The solubility was 40 µg/mL (≈ 43.3 µM).

**Q.** And the “response to non-liposomal Amp B therapy” value ([12]; intravenous)?
**A.** The value was “nasal lesions worsened in spite of Amp B therapy and new lung lesions appeared on chest x-ray examination”.

**Q.** What about the “response to Amp B by aerosolization” value ([12]; total of 1.4 gm by aerosolization) of the same molecule?
**A.** Its value is “without improvement”.

**Q.** And the “side effects of non-liposomal Amp B therapy” value ([12]; total of 2.4 gm intravenously)?
**A.** The value was “always associated with severe nausea, fever and chills”.

**Q.** What about the “side effects of non-liposomal Amp B therapy” value [13] of the same molecule?
**A.** The value was “fever and chills were observed”.

**Q.** And the “solubility in aqueous solution” value [14]?
**A.** Its value is “insoluble in aqueous solution”.

**Q.** What about the toxic effects [15] of the same molecule?
**A.** The toxic effects was “renal disfunction, anemia, fever and hypotension”.
